# In patent publication US20250179045A1, “LPAR1 ANTAGONISTS AND USES THEREOF” (Contineum Therapeutics, Inc., priority 2021, published 2025):
# Target: human LPA1 (Homo sapiens, UniProt Q92633)
# Assay: In vitro functional assay of lysophosphatidic acid receptor 1 activity (calcium flux)
# Type: cell-based
# Conditions: B103 cells stably expressing human LPA1; Fluo-4 NW calcium flux after lysophosphatidic acid (18:1) at EC80; compounds 100 pM to 10 μM; read-out: LPA1 IC50
# Procedure: In vitro functional assay of lysophosphatidic acid receptor 1 activity
# Primary compound plates were prepared in 100% DMSO (Sigma-Aldrich), secondary compound plates were prepared at 10× concentration in DiVEM (Invitrogen), and tertiary compound plates were prepared at 3x concentration in assay buffer containing HBSS (no Ca^+2/Mg^+2, Invitrogen) and 0.1% BSA (Sigma-Aldrich). Fluo-4 NW calcium assay dye (Invitrogen) was prepared as per manufacturer's recommendations in assay buffer. B103 cells stably expressing human LPA1(J. Chun lab, UCSD) were grown to confluency in DMEM media (Invitrogen) containing 10% FBS (ATCC), […] (Sigma-Aldrich) and […] Geneticin (Sigma-Aldrich), and detached with Accutase (Sigma-Aldrich) prior to assay. The freshly detached cells were resuspended in growth media and plated in black, clear-bottom 96-well plates (Costar) containing compound (i.e., secondary compound plate) at a density of 5×10^4 cells/well. Once plated, cells were left at room temperature for 30 minutes and then transferred to a 37° C., […] incubator for 24 hours. After 24 hours, the growth media was then removed and freshly prepared Fluo-4 NW calcium assay dye was added to cells. Compounds (i.e. tertiary compound plates) were then added back to the dye/cells, returned to the incubator for 30 minutes, and then kept at room temperature for an additional 30 minutes. Finally, lysophosphatidic acid (18:1) at the EC80 concentration was added and calcium flux measured using FlexStation 3 (Molecular Devices). Sigmoidal dose-response curves were generated by measuring […] over 45 sec and calculating the area under the curve. Dose response curves and IC50 values were generated using Prism (GraphPad). Compounds were tested at a final concentration range of 100 pM to 10 μM in 0.10% DMSO.
# human LPA1, sequence (Q92633 whole entry): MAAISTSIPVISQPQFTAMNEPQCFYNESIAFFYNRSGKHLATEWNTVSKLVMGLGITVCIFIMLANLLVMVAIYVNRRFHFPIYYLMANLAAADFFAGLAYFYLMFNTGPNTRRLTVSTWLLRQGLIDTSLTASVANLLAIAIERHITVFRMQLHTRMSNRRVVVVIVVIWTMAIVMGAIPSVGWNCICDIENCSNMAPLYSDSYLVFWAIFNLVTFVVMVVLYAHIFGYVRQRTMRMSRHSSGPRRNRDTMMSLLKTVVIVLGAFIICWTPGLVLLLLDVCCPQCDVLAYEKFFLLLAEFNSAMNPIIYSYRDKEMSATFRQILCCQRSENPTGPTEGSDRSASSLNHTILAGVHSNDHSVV
row,SMILES,IC50 [nM]
1,"COc1ccc(NC(=O)[C@]2(c3ccccc3C(C)C)C[C@@H](CC(N)=O)C2)c(OC(F)F)n1 [Example 118, trans-3-(2-amino-2-oxoethyl)-N-(2-(difluoromethoxy)-6-methoxypyridin-3-yl)-1-(2-isopropylphenyl)cyclobutane-1-carboxamide]",10 to 100
2,"CC(C)c1ccccc1C1(C(=O)Nc2ccc(Cl)cn2)CC(O)(C(F)(F)C(=O)O)C1 (single isomer, unassigned) [Example 93-isomer A, 2-(3-((5-chloropyridin-2-yl)carbamoyl)-1-hydroxy-3-(2-isopropylphenyl)cyclobutyl)-2,2-difluoroacetic acid]",10 to 100
3,"Cc1ccc(NC(=O)C2(c3ccccc3C(C)C)CC(C(=O)O)C2)c(OC(F)F)n1 (stereo not drawn) [Example 65, 3-((2-(difluoromethoxy)-6-methylpyridin-3-yl)carbamoyl)-3-(2-isopropylphenyl)cyclobutane-1-carboxylic acid]",10 to 100
4,"Cc1cc(OC(F)F)c(NC(=O)C2(c3ccccc3C(C)C)CC(O)(C(F)(F)C(=O)O)C2)cn1 (single isomer, unassigned) [Example 94-isomer B, 2-(3-((4-(difluoromethoxy)-6-methylpyridin-3-yl)carbamoyl)-1-hydroxy-3-(2-isopropylphenyl)cyclobutyl)-2,2-difluoroacetic acid]",10 to 100
5,"Cc1ccc(NC(=O)C2(c3ccccc3C(C)C)CC(NC3CC3)C2)c(OC(F)F)n1 (single isomer, unassigned) [Example 40-isomer A, 3-(cyclopropylamino)-N-(2-(difluoromethoxy)-6-methylpyridin-3-yl)-1-(2-isopropylphenyl)cyclobutane-1-carboxamide]",100 to 1000
6,"COc1ccc(NC(=O)C2(c3ccccc3C(C)C)COC2)c(OC2CC2)n1 [Example 29, N-(2-cyclopropoxy-6-methoxypyridin-3-yl)-3-(2-isopropylphenyl)oxetane-3-carboxamide]",100 to 1000
7,"Cc1ccc(NC(=O)C2(c3ccccc3C(C)C)CC(N(C)C)C2)c(OC(F)F)n1 (stereo not drawn) [Example 39, N-(2-(difluoromethoxy)-6-methylpyridin-3-yl)-3-(dimethylamino)-1-(2-isopropylphenyl)cyclobutane-1-carboxamide]",100 to 1000
8,"COc1ccc(NC(=O)C2(c3ccccc3C(C)C)CC(CO)C2)c(OC)n1 (stereo not drawn) [Example 60, N-(2,6-dimethoxypyridin-3-yl)-3-(hydroxymethyl)-1-(2-isopropylphenyl)cyclobutane-1-carboxamide]",10 to 100
9,"COc1ccc(NC(=O)C2(c3ccccc3C(C)C)CCC(C)(O)CC2)c(OC(F)F)n1 (single isomer, unassigned) [Example 83-isomer A, N-(2-(difluoromethoxy)-6-methoxypyridin-3-yl)-4-hydroxy-1-(2-isopropylphenyl)-4-methylcyclohexane-1-carboxamide]",> 1000
10,"CC(C)c1ccccc1C1(C(=O)Nc2ncc(Br)cc2OC(F)F)COC1 [Example 24, N-(5-bromo-3-(difluoromethoxy)pyridin-2-yl)-3-(2-isopropylphenyl)oxetane-3-carboxamide]",10 to 100
11,"Cc1ccc(NC(=O)C2(c3ccccc3C(C)C)CC(N3CC(O)C3)C2)c(OC(F)F)n1 (stereo not drawn) [Example 42, N-(2-(difluoromethoxy)-6-methylpyridin-3-yl)-3-(3-hydroxyazetidin-1-yl)-1-(2-isopropylphenyl)cyclobutane-1-carboxamide]",100 to 1000
12,"CC(C)c1ccccc1C1(C(=O)Nc2ncc(Cl)cc2OC(F)F)CC(CC(=O)O)C1 (stereo not drawn) [Example 47, 2-(3-((5-chloro-3-(difluoromethoxy)pyridin-2-yl)carbamoyl)-3-(2-isopropylphenyl)cyclobutyl)acetic acid]",10 to 100
13,"Cc1ccc(NC(=O)C2(c3ccccc3C(C)C)CC(CC#N)C2)c(OC(F)F)n1 (mixture of isomers) [Example 63, 3-(cyanomethyl)-N-(2-(difluoromethoxy)-6-methylpyridin-3-yl)-1-(2-isopropylphenyl)cyclobutane-1-carboxamide]",100 to 1000
14,"COc1ccc(NC(=O)C2(c3ccccc3C(C)C)CCC(N=[N+]=[N-])CC2)c(OC(F)F)n1 (stereo not drawn) [Example 84, 4-azido-N-(2-(difluoromethoxy)-6-methoxypyridin-3-yl)-1-(2-isopropylphenyl)cyclohexane-1I-carboxamide]",10 to 100

# Results, then the compound that gave them:
row,IC50 [nM],SMILES
1,10 to 100,"CC(C)c1ccccc1C1(C(=O)Nc2ccc(F)cc2OC(F)F)COC1 [Example 27, N-(2-(difluoromethoxy)-4-fluorophenyl)-3-(2-isopropylphenyl)oxetane-3-carboxamide]"
2,100 to 1000,"Cc1ccc(NC(=O)C2(c3ccccc3C(C)C)CC(CC(=O)N(C)C)C2)c(OC(F)F)n1 (stereo not drawn) [Example 67, N-(2-(difluoromethoxy)-6-methylpyridin-3-yl)-3-(2-(dimethylamino)-2-oxoethyl)-1-(2-isopropylphenyl)cyclobutane-1-carboxamide]"
3,100 to 1000,"CCOCN1CC(C(=O)Nc2ncc(Cl)cc2OC(F)F)(c2ccccc2C(C)C)CC1=O (stereo not drawn) [Example 11, N-(5-chloro-3-(difluoromethoxy)pyridin-2-yl)-1-(ethoxymethyl)-3-(2-isopropylphenyl)-5-oxopyrrolidine-3-carboxamide]"
4,10 to 100,"Cc1ccc(NC(=O)C2(c3ccccc3C(C)C)CC(Cc3nnn[nH]3)C2)c(OC(F)F)n1 (mixture of isomers) [Example 112, 3-((1H-tetrazol-5-yl)methyl)-N-(2-(difluoromethoxy)-6-methylpyridin-3-yl)-1-(2-isopropylphenyl)cyclobutane-1-carboxamide]"
5,10 to 100,"CC(C)c1ccccc1C1(C(=O)Nc2ncc(Cl)cc2OC(F)F)CNC(=O)C1 (stereo not drawn) [Example 10, N-(5-chloro-3-(difluoromethoxy)pyridin-2-yl)-3-(2-isopropylphenyl)-5-oxopyrrolidine-3-carboxamide]"
6,100 to 1000,"COc1ccc(NC(=O)C2(c3ccccc3C(C)C)CCC(S(=O)(=O)N(C)C)CC2)c(OC(F)F)n1 (mixture of isomers) [Example 98, N-(2-(difluoromethoxy)-6-methoxypyridin-3-yl)-4-(N,N-dimethylsulfamoyl)-1-(2-isopropylphenyl)cyclohexane-1-carboxamide]"
7,10 to 100,"COc1ccc(NC(=O)[C@]2(c3ccccc3C(C)C)C[C@H](CC(N)=O)C2)c(OC(F)F)n1 [Example 117, cis-3-(2-amino-2-oxoethyl)-N-(2-(difluoromethoxy)-6-methoxypyridin-3-yl)-1-(2-isopropylphenyl)cyclobutane-1-carboxamide]"
8,10 to 100,"CCC1(O)CC(C(=O)Nc2ccc(C)nc2OC(F)F)(c2ccccc2C(C)C)C1 (stereo not drawn) [Example 52, N-(2-(difluoromethoxy)-6-methylpyridin-3-yl)-3-ethyl-3-hydroxy-1-(2-isopropylphenyl)cyclobutane-1-carboxamide]"
9,100 to 1000,"CC(C)c1ccccc1C1(C(=O)Nc2ccc(F)cc2OC(F)F)CC(=O)N(C)C1 (stereo not drawn) [Example 88, N-(2-(difluoromethoxy)-4-fluorophenyl)-3-(2-isopropylphenyl)-1-methyl-5-oxopyrrolidine-3-carboxamide]"
10,100 to 1000,"COc1ccc(NC(=O)C2(c3ccccc3C(C)C)CNC(=O)C2)c(OC)n1 (stereo not drawn) [Example 103, N-(2,6-dimethoxypyridin-3-yl)-3-(2-isopropylphenyl)-5-oxopyrrolidine-3-carboxamide]"
